Measurements published in the Kinase Knowledgebase extract (Sharma et al. 2016).

Molecular target: PIK3CA (human) (UniProt P42336)
Assay: Cell-Based Assay

Sequence of PIK3CA (human) (P42336 whole entry, looked up): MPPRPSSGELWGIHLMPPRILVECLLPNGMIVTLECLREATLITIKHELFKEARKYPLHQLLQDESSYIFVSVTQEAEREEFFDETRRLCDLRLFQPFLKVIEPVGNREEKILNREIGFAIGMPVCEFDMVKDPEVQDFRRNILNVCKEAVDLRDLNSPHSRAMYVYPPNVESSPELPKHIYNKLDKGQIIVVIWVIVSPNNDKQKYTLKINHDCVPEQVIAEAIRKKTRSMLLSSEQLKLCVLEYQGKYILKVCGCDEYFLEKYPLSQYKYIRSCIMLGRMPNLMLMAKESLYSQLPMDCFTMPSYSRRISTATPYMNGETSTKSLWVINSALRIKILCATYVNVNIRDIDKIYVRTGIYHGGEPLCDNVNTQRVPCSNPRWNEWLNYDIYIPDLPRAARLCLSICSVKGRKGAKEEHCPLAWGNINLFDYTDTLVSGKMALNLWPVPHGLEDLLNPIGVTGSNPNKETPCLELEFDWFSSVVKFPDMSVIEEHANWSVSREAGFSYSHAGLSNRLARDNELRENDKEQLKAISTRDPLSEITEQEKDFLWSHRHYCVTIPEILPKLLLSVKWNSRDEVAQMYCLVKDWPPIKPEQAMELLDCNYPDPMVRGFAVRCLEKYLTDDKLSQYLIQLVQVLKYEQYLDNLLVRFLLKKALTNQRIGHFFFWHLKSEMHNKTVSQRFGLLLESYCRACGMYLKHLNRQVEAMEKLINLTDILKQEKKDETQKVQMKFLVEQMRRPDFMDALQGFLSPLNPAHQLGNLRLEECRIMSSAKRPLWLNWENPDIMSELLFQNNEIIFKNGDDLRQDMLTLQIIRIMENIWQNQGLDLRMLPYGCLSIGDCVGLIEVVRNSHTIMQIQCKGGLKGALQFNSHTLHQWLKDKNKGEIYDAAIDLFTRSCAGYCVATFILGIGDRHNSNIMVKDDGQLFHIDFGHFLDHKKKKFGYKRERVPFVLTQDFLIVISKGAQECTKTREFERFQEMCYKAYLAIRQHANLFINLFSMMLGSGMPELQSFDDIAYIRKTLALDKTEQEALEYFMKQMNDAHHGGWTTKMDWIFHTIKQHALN

| IC50 (t47d) [nM] | SMILES | other results |
| --- | --- | --- |
| 100 to 1000 | Nc1nc2cc(-c3ccc4ncnc(OC5CCOCC5)c4c3)ccc2o1 |  |
| 100 to 1000 | C[C@H]1CN(C(=O)C2CN(c3cnc4ccc(-c5ccc6oc(N)nc6c5)cc4n3)C2)CCN1 |  |
| 100 to 1000 | Nc1nc2cc(-c3ccc4ncc(N5CCN(CCO)CC5)nc4c3)ccc2o1 |  |
| 100 to 1000 | Nc1nc2cc(-c3ccc4ncc(C(=O)N5CC[C@@H](O)C5)n4c3)ccc2o1 |  |
| 100 to 1000 | CN1CC(C(=O)N2CCN(c3cnc4ccc(-c5ccc6oc(N)nc6c5)cc4n3)CC2)C1 |  |
| > 10000 | Nc1nc2cc(-c3ccc4nnc(C(=O)N5CCOCC5)n4c3)ccc2o1 |  |
| 100 to 1000 | CCNC(=O)c1cnc2ccc(-c3ccc4oc(N)nc4c3)cn12 |  |
| 100 to 1000 | Nc1nc2cc(-c3ccc4ncc(N5CCN(C(=O)C6(N)CCC6)CC5)nc4c3)ccc2o1 |  |
| 100 to 1000 | Nc1nc2cc(-c3ccc4ncc(N5CC(N6CCOCC6)C5)nc4c3)ccc2o1 |  |
| 100 to 1000 | Nc1nc2cc(-c3ccc4ncc(C(=O)NCCO)n4c3)ccc2o1 |  |
| 100 to 1000 | Nc1nc2cc(-c3ccc4ncc(N5CC(C(=O)N6CCOCC6)C5)nc4c3)ccc2o1 |  |
| 100 to 1000 | Nc1nc2cc(-c3ccc4ncc(N5CCNC(=O)C5)nc4c3)ccc2o1 |  |
| 100 to 1000 | Nc1nc2cc(-c3ccc4ncc(C(=O)NC5CC5)n4c3)ccc2o1 |  |
| > 10000 | CN1CC(C(=O)N2CCC(Nc3ncnc4ccc(-c5ccc6oc(N)nc6c5)cc34)CC2)C1 |  |
| 100 to 1000 | Nc1nc2cc(-c3ccc4ncc(N5CCN(C(=O)[C@H](N)CO)CC5)nc4c3)ccc2o1 |  |
| 100 to 1000 | Nc1nc2cc(-c3ccc4ncc(C(=O)NCCCN5CCCC5)n4c3)ccc2o1 |  |

| IC50 (t47d) [nM] | SMILES | other results |
| --- | --- | --- |
| 100 to 1000 | C[C@@H]1CN(C(=O)C2CN(c3cnc4ccc(-c5ccc6oc(N)nc6c5)cc4n3)C2)CCN1 |  |
| 100 to 1000 | Nc1nc2cc(-c3ccc4ncc(N5CC(N6CCN(CCO)CC6)C5)nc4c3)ccc2o1 |  |
| 100 to 1000 | Nc1nc2cc(-c3ccc4ncc(NC5CCOCC5)nc4c3)ccc2o1 |  |
| 100 to 1000 | CC(C)(N)C(=O)N1CCN(c2cnc3ccc(-c4ccc5oc(N)nc5c4)cc3n2)CC1 |  |
| 100 to 1000 | CC(C)[C@@H](N)C(=O)N1CCN(c2cnc3ccc(-c4ccc5oc(N)nc5c4)cc3n2)CC1 |  |
| 100 to 1000 | CN1CCN(C2CN(C(=O)c3cnc4ccc(-c5ccc6oc(N)nc6c5)cn34)C2)CC1 |  |
| 100 to 1000 | CNC(=O)CN1CCN(c2cnc3ccc(-c4ccc5oc(N)nc5c4)cc3n2)CC1 |  |
| 100 to 1000 | CC(C)N1CCN(C(=O)C2CN(c3cnc4ccc(-c5ccc6oc(N)nc6c5)cc4n3)C2)CC1 |  |
| 100 to 1000 | Nc1nc2cc(-c3ccc4ncc(N5CCN(C(=O)CN6CCCC6)CC5)nc4c3)ccc2o1 |  |
| 100 to 1000 | C[C@H](N)C(=O)N1CCN(c2cnc3ccc(-c4ccc5oc(N)nc5c4)cc3n2)CC1 |  |
| 100 to 1000 | CS(=O)(=O)N1CCN(C(=O)c2cnc3ccc(-c4ccc5oc(N)nc5c4)cn23)CC1 |  |
| 100 to 1000 | Nc1nc2cc(-c3ccc4ncc(N5CCN(C(=O)[C@@H]6CCCN6)CC5)nc4c3)ccc2o1 |  |
| 100 to 1000 | CC(=O)Nc1cn2cc(-c3ccc4oc(N)nc4c3)ccc2n1 | IC50 (pc3): < 100 nM |
| 100 to 1000 | CN1CCN(c2cnc3ccc(-c4ccc5oc(N)nc5c4)cc3n2)CC1=O |  |
| 100 to 1000 | CC(N)C(=O)N1CCN(c2cnc3ccc(-c4ccc5oc(N)nc5c4)cc3n2)CC1 (configuration not stated) |  |
| 100 to 1000 | CC(=O)N1CCC(Nc2ncnc3ccc(-c4ccc5oc(N)nc5c4)nc23)CC1 |  |

The remaining lines, values behind:

| SMILES | IC50 (t47d) [nM] | other results |
| --- | --- | --- |
| Nc1nc2cc(-c3ccn4ncc(-c5ccncc5)c4c3)ccc2o1 | 100 to 1000 |  |
| CC(C)N1CCN(C2CN(c3cnc4ccc(-c5ccc6oc(N)nc6c5)nc4c3)C2)CC1 |  | IC50 (mda-mb-361): 100 to 1000 nM |
| Nc1noc2cc(-c3ccc4nccc(-c5ccncc5)c4c3)ccc12 | 100 to 1000 |  |
| Nc1nc2cc(-c3ccc4ncc(N5CCC(O)CC5)nc4n3)ccc2o1 |  | IC50 (mda-mb-361): 100 to 1000 nM |
| Nc1nc2cc(-c3ccc4ncc(-c5cnn(CCO)c5)nc4c3)ccc2o1 | 100 to 1000 |  |
| CN1CCN(CCNc2cnc3ccc(-c4ccc5oc(N)nc5c4)cc3n2)CC1 | 100 to 1000 |  |
| CC1(C)CN(C2CN(c3cnc4ccc(-c5ccc6oc(N)nc6c5)nc4n3)C2)CCN1 |  | IC50 (mda-mb-361): 100 to 1000 nM |
| Nc1nc2cc(-c3ccc4ncc(C(=O)N5CC[C@H](n6cccn6)C5)n4c3)ccc2o1 |  | IC50 (pc3): 100 to 1000 nM |
| Nc1nc2cc(-c3ccc4ncc(N5CCN(C(=O)C6(N)CC6)CC5)cc4n3)ccc2o1 |  | IC50 (mda-mb-361): 100 to 1000 nM |
| Nc1nc2cc(-c3ccc4ncc(C(=O)N5CC(F)(F)C5)n4c3)ccc2o1 |  | IC50 (pc3): 100 to 1000 nM |
| CCOC(=O)N1CCN(c2cnc3ccc(-c4ccc5oc(N)nc5c4)nc3c2)CC1 |  | IC50 (mda-mb-361): 100 to 1000 nM |
| Nc1nc2cc(-c3ccc4ncc(N5CCC(N6CCOCC6)CC5)nc4c3)ccc2o1 | 100 to 1000 |  |
| CCN1CCN(C2CN(c3cnc4ccc(-c5ccc6oc(N)nc6c5)nc4c3)C2)CC1 |  | IC50 (mda-mb-361): 100 to 1000 nM |
| O=C(c1cnc2ccc(-c3cnc(Cl)c(NS(=O)(=O)c4cccc(F)c4)c3)cn12)N1CCOCC1 |  | IC50 (pc3): 100 to 1000 nM |
| CN1CCC(Nc2ncnc3ccc(-c4ccc5oc(N)nc5c4)nc23)CC1 | 100 to 1000 |  |
| O=C(c1cnc2ccc(-c3cnc(Cl)c(NS(=O)(=O)c4ccc(F)cc4)c3)cn12)N1CCOCC1 |  | IC50 (pc3): 100 to 1000 nM |
| C[C@@H]1CN(C2CN(C(=O)c3cnc4ccc(-c5ccc6oc(N)nc6c5)cn34)C2)CCN1C |  | IC50 (pc3): 100 to 1000 nM |
| CCOC(=O)N1CC=C(c2cnc3ccc(-c4ccc5oc(N)nc5c4)nc3n2)CC1 |  | IC50 (mda-mb-361): 100 to 1000 nM |
| C[C@H]1COCCN1c1cnc2ccc(-c3ccc4oc(N)nc4c3)nc2n1 |  | IC50 (mda-mb-361): 100 to 1000 nM |
| NCC(=O)N1CCN(c2cnc3ccc(-c4ccc5oc(N)nc5c4)nc3n2)CC1 |  | IC50 (mda-mb-361): > 10000 nM |

| SMILES | IC50 (t47d) [nM] | other results |
| --- | --- | --- |
| C[C@H]1CN(C2CN(C(=O)c3cnc4ccc(-c5ccc6oc(N)nc6c5)cn34)C2)CCN1C |  | IC50 (pc3): 100 to 1000 nM |
| Nc1nc2cc(-c3ccc4ncc(N5CC6CCC(C5)O6)nc4n3)ccc2o1 |  | IC50 (mda-mb-361): 100 to 1000 nM |
| Nc1nc2cc(-c3ccc4ncc(N5CCNC(=O)C5)nc4n3)ccc2o1 |  | IC50 (mda-mb-361): 100 to 1000 nM |
| C[C@H]1CN(C2CN(c3cnc4ccc(-c5ccc6oc(N)nc6c5)nc4c3)C2)CCN1C |  | IC50 (mda-mb-361): 100 to 1000 nM |
| CN1CCN(C2CN(c3cnc4ccc(-c5ccc6oc(N)nc6c5)nc4c3)C2)CC1=O |  | IC50 (mda-mb-361): 100 to 1000 nM |
| Cn1c(=O)n(-c2ccc(C(C)(C)C#N)cc2)c2c3cc(-c4ccc5oc(N)nc5c4)ccc3ncc21 |  | IC50 (pc3): < 100 nM |
| CS(=O)(=O)N1CCN(Cc2cc3nc(-c4ccc5oc(N)nc5c4)nc(N4CCOCC4)c3s2)CC1 |  | IC50 (pc3): 100 to 1000 nM |
| CCOC(=O)N1CCN(c2cnc3ccc(-c4ccc5oc(N)nc5c4)nc3n2)CC1 |  | IC50 (mda-mb-361): 100 to 1000 nM |
| C[C@H]1CN(C2CN(c3cnc4ccc(-c5ccc6oc(N)nc6c5)nc4c3)C2)CCN1 |  | IC50 (mda-mb-361): 100 to 1000 nM |
| CN1CCN(C2CN(c3cnc4ccc(-c5ccc6oc(N)nc6c5)nc4c3)C2)CC1 |  | IC50 (mda-mb-361): 100 to 1000 nM |
| CS(=O)(=O)CCN1CCN(c2cnc3ccc(-c4ccc5oc(N)nc5c4)cc3n2)CC1 | 100 to 1000 |  |
| COc1ncc(-c2ccc3ncn(C4CCN(C)CC4)c(=O)c3c2)cc1NS(=O)(=O)c1ccccc1 |  | IC50 (pc3): 100 to 1000 nM |
| CC(C)(N)C(=O)N1CCN(c2cnc3ccc(-c4ccc5oc(N)nc5c4)nc3c2)CC1 |  | IC50 (mda-mb-361): 100 to 1000 nM |
| Nc1nc2cc(-c3ccc4ncc(N5CC(N6CCN(CCO)CC6)C5)cc4n3)ccc2o1 |  | IC50 (mda-mb-361): 100 to 1000 nM |
| C[C@@H]1COCCN1c1cnc2ccc(-c3ccc4oc(N)nc4c3)nc2n1 |  | IC50 (mda-mb-361): 100 to 1000 nM |
| Nc1nc2cc(-c3ccc4ncc(N5CCOCC5)nc4c3)ccc2s1 | 100 to 1000 |  |
| Nc1nc2cc(-c3ccc4ncc(N5CC(N6CCN(CC7CC7)CC6)C5)nc4c3)ccc2o1 | 100 to 1000 |  |
| COc1ncc(-c2ccc3ncc(C(=O)N4CCOCC4)n3c2)cc1NS(=O)(=O)c1cccnc1 |  | IC50 (pc3): 100 to 1000 nM |
| Cc1cn(-c2cnc3ccc(-c4ccc5oc(N)nc5c4)cc3n2)cn1 | > 10000 |  |
